Reference: patent publication US20170001990A1 (Genentech, Inc., priority 2014, published 2017)

target: Human recombinant carboxy-terminal his-tagged LDHA (amino acids 2-332) (Homo sapiens, UniProt P00338); assay: LDHA enzyme inhibition assay (NADH fluorescence); settings: LDHA IC50 (μM), 1 nM LDHA, NADH and pyruvate, stereochemistry of tested sample given

| Compound | IC50 |
| --- | --- |
| COc1cc(F)cc(Cc2cccc(C3(c4ccsc4)CC(=O)C(Sc4ccccc4Cl)C(=O)N3)n2)c1 (stereo not shown) [Example 147, 3-((2-chlorophenyl)thio)-6-(6-(3-fluoro-5-methoxy-benzyl)pyridin-2-yl)-6-(thiophen-3-yl)piperidine-2,4-dione] | 0.008 µM |
| CCC(C)COc1cccc(C2(c3ccsc3)CC(=O)C(Sc3ccccc3Cl)C(=O)N2)n1 (stereo not shown) [Example 164, 3-(2-chlorophenyl)sulfanyl-6-[6-(2-methylbutoxy)-2-pyridyl]-6-(3-thienyl) piperidine-2,4-dione] | 0.009 µM |
| O=C1CC(c2ccsc2)(c2cccc(N3CCc4ccc(CO)cc43)n2)NC(=O)C1Sc1ccccc1Cl (stereo not shown) [Example 177, 3-(2-chlorophenyl)sulfanyl-6-[6-[6-(hydroxymethyl)indolin-1-yl]-2-pyridyl]-6-(3-thienyl)piperidine-2,4-dione] | 0.016 µM |
| CC1CC1COc1cccc(C2(c3ccsc3)CC(=O)C(Sc3ccccc3Cl)C(=O)N2)n1 (stereo not shown) [Example 183, 3-(2-chlorophenyl)sulfanyl-6-[6-[(2-methylcyclo-propyl)methoxy]-2-pyridyl]-6-(3-thienyl)piperidine-2,4-dione] | 0.005 µM |
| O=C1CC(c2ccsc2)(c2cccc(OCc3ccncc3)n2)NC(=O)C1Sc1ccccc1Cl (stereo not shown) [Example 186, 3-(2-chlorophenyl)sulfanyl-6-[6-(4-pyridylmethoxy)-2-pyridyl]-6-(3-thienyl) piperidine-2,4-dione] | 0.021 µM |
| CCC(C)COc1cccc(C2(c3ccsc3)CC(=O)C(Sc3ccccc3Cl)C(=O)N2)n1 (stereo not shown) [Example 188, 3-(2-chlorophenyl)sulfanyl-6-[6-(2-methylbutoxy)-2-pyridyl]-6-(3-thienyl) piperidine-2,4-dione] | 0.015 µM |
| O=C1CC(c2ccsc2)(c2cccc(OCCN3CCCC3=O)n2)NC(=O)C1Sc1ccccc1Cl (stereo not shown) [Example 189, 3-(2-chlorophenyl)sulfanyl-6-[6-[2-(2-oxopyrrolidin-1-yl)ethoxy]-2-pyridyl]-6-(3-thienyl)piperidine-2,4-dione] | 0.15 µM |
| CC1(C)OCC(CCOc2cccc(C3(c4ccsc4)CC(=O)C(Sc4ccccc4Cl)C(=O)N3)n2)O1 (stereo not shown) [Example 190, 3-(2-chlorophenyl)sulfanyl-6-[6-[2-(2,2-dimethyl-1,3-dioxolan-4-yl)ethoxy]-2-pyridyl]-6-(3-thienyl) piperidine-2,4-dione] | 0.092 µM |
| CC1(C)OCC(CCOc2cccc(C3(c4ccsc4)CC(=O)C(Sc4ccccc4Cl)C(=O)N3)n2)O1 (stereo not shown) [Example 191, 3-(2-chlorophenyl)sulfanyl-6-[6-[2-(2,2-dimethyl-1,3-dioxolan-4-yl)ethoxy]-2-pyridyl]-6-(3-thienyl) piperidine-2,4-dione] | 0.158 µM |
| CCC(C)COc1cccc(C2(c3ccsc3)CC(=O)C(Sc3ccccc3Cl)C(=O)N2)n1 (stereo not shown) [Example 210, 3-(2-chlorophenyl)sulfanyl-6-[6-(2-methylbutoxy)-2-pyridyl]-6-(3-thienyl) piperidine-2,4-dione] | 0.008 µM |
| O=C1CC(c2ccsc2)(c2cccc(NCCC3CCCCC3)n2)NC(=O)C1Sc1ccccc1Cl (stereo not shown) [Example 220, 3-(2-chlorophenyl)sulfanyl-6-[6-(2-cyclohexyl-ethylamino)-2-pyridyl]-6-(3-thienyl)piperidine-2,4-dione] | 0.162 µM |
| O=C1CC(c2ccsc2)(c2cccc(OC3CCC3)n2)NC(=O)C1Sc1ccccc1Cl (stereo not shown) [Example 222, 3-(2-chlorophenyl)sulfanyl-6-[6-(cyclobutoxy)-2-pyridyl]-6-(3-thienyl) piperidine-2,4-dione] | 0.322 µM |
| O=C1CC(c2ccsc2)(c2cccc(OCC3CCC3)n2)NC(=O)C1Sc1ccccc1Cl (stereo not shown) [Example 224, 3-(2-chlorophenyl)sulfanyl-6-[6-(cyclobutylmethoxy)-2-pyridyl]-6-(3-thienyl) piperidine-2,4-dione] | 0.02 µM |
| Cn1ccnc1COc1cccc(C2(c3ccsc3)CC(=O)C(Sc3ccccc3Cl)C(=O)N2)n1 (stereo not shown) [Example 229, 3-(2-chlorophenyl)sulfanyl-6-[6-[(1-methylimidazol-2-yl)methoxy]-2-pyridyl]-6-(3-thienyl)piperidine-2,4-dione] | 0.011 µM |
| CC(C)(C)OCCOc1cccc(C2(c3ccsc3)CC(=O)C(Sc3ccccc3Cl)C(=O)N2)n1 (stereo not shown) [Example 230, 6-[6-(2-tert-butoxyethoxy)-2-pyridyl]-3-(2-chloro-phenyl)sulfanyl-6-(3-thienyl)piperidine-2,4-dione] | 0.022 µM |

The remaining compounds from weak to strong by IC50, led by results:

| IC50 | Compound |
| --- | --- |
| 0.183 µM | O=C1CC(c2ccsc2)(c2cccc(NCCC3CC3)n2)NC(=O)C1Sc1ccccc1Cl (stereo not shown) [Example 173, 3-(2-chlorophenyl)sulfanyl-6-[6-(2-cyclopropyl-ethylamino)-2-pyridyl]-6-(3-thienyl)piperidine-2,4-dione] |
| 0.183 µM | CC1(C)OCC(CCOc2cccc(C3(c4ccsc4)CC(=O)C(Sc4ccccc4Cl)C(=O)N3)n2)O1 (stereo not shown) [Example 211, 3-(2-chlorophenyl)sulfanyl-6-[6-[2-(2,2-dimethyl-1,3-dioxolan-4-yl)ethoxy]-2-pyridyl]-6-(3-thienyl) piperidine-2,4-dione] |
| 0.068 µM | O=C1CC(c2ccsc2)(c2cccc(NCCC3CC3)n2)NC(=O)C1Sc1ccccc1Cl (stereo not shown) [Example 174, 3-(2-chlorophenyl)sulfanyl-6-[6-(2-cyclopropyl-ethylamino)-2-pyridyl]-6-(3-thienyl)piperidine-2,4-dione] |
| 0.046 µM | O=C1CC(c2ccsc2)(c2cccc(NCCC3CC3)n2)NC(=O)C1Sc1ccccc1Cl (stereo not shown) [Example 131, 3-(2-chlorophenyl)sulfanyl-6-[6-(2-cyclopropyl-ethylamino)-2-pyridyl]-6-(3-thienyl)piperidine-2,4-dione] |
| 0.025 µM | O=C1CC(c2ccsc2)(c2cccc(NCCC3CC3)n2)NC(=O)C1Sc1ccccc1Cl (stereo not shown) [Example 138, 3-(2-chlorophenyl)sulfanyl-6-[6-(2-cyclopropyl-ethylamino)-2-pyridyl]-6-(3-thienyl)piperidine-2,4-dione] |
| 0.02 µM | CC(C)(C)COc1cccc(C2(c3ccsc3)CC(=O)C(Sc3ccccc3Cl)C(=O)N2)n1 (stereo not shown) [Example 226, 3-(2-chlorophenyl)sulfanyl-6-[6-(2,2-dimethylpropoxy)-2-pyridyl]-6-(3-thienyl) piperidine-2,4-dione] |
| 0.019 µM | O=C1CC(c2ccsc2)(c2cccc(Oc3ccc(F)c(C(F)(F)F)c3)n2)NC(=O)C1Sc1ccccc1Cl (stereo not shown) [Example 150, 3-(2-chlorophenyl)sulfanyl-6-[6-[4-fluoro-3-(trifluoromethyl)phenoxy]-2-pyridyl]-6-(3-thienyl) piperidine-2,4-dione] |
| 0.015 µM | O=C1CC(c2ccsc2)(c2cccc(Cc3cc(F)cc(F)c3)n2)NC(=O)C1Sc1ccccc1Cl (stereo not shown) [Example 151, 3-(2-chlorophenyl)sulfanyl-6-[6-[(3,5-difluorophenyl)methyl]-2-pyridyl]-6-(3-thienyl)piperidine-2,4-dione] |
| 0.014 µM | CC(COc1cccc(C2(c3ccsc3)CC(=O)C(Sc3ccccc3Cl)C(=O)N2)n1)C1CC1 (stereo not shown) [Example 179, 3-((2-chlorophenyl)thio)-6-(6-(2-cyclopropyl-propoxy)pyridin-2-yl)-6-(thiophen-3-yl)piperidine-2,4-dione] |
| 0.013 µM | O=C1CC(c2ccsc2)(c2cccc(Oc3ccc(Cl)cc3)n2)NC(=O)C1Sc1ccccc1Cl (stereo not shown) [Example 175, 6-[6-(4-chlorophenoxy)-2-pyridyl]-3-(2-chlorophenyl) sulfanyl-6-(3-thienyl) piperidine-2,4-dione] |
| 0.012 µM | O=C1CC(c2ccsc2)(c2cccc(Oc3cccc(C(F)(F)F)c3)n2)NC(=O)C1Sc1ccccc1Cl (stereo not shown) [Example 140, 3-(2-chlorophenyl)sulfanyl-6-(3-thienyl)-6-[6-[3-(trifluoromethyl)phenoxy]-2-pyridyl]piperidine-2,4-dione] |
| 0.012 µM | O=C1CC(c2ccsc2)(c2cccc(Oc3cccc(C(F)(F)F)c3)n2)NC(=O)C1Sc1ccccc1Cl (stereo not shown) [Example 153, 3-(2-chlorophenyl)sulfanyl-6-(3-thienyl)-6-[6-[3-(trifluoromethyl)phenoxy]-2-pyridyl]piperidine-2,4-dione] |
| 0.01 µM | O=C1CC(c2ccsc2)(c2cccc(Oc3cccc(C(F)(F)F)c3)n2)NC(=O)C1Sc1ccccc1Cl (stereo not shown) [Example 169, 3-(2-chlorophenyl)sulfanyl-6-(3-thienyl)-6-[6-[3-(trifluoromethyl)phenoxy]-2-pyridyl]piperidine-2,4-dione] |
| 0.01 µM | O=C1CC(c2ccsc2)(c2cccc(Oc3ccc(F)c(F)c3)n2)NC(=O)C1Oc1ccccc1Cl (stereo not shown) [Example 217, 3-(2-chlorophenoxy)-6-[6-(3,4-difluorophenoxy)-2-pyridyl]-6-(3-thienyl) piperidine-2,4-dione] |
| 0.009 µM | O=C1CC(c2ccsc2)(c2cccc(Oc3ccc(F)c(C(F)F)c3)n2)NC(=O)C1Sc1ccccc1Cl (stereo not shown) [Example 139, 3-(2-chlorophenyl)sulfanyl-6-[6-[3-(difluoro-methyl)-4-fluoro-phenoxy]-2-pyridyl]-6-(3-thienyl) piperidine-2,4-dione] |
| 0.009 µM | CC(Oc1cccc(C2(c3ccsc3)CC(=O)C(Sc3ccccc3Cl)C(=O)N2)n1)C(F)(F)F (stereo not shown) [Example 231, 3-(2-chlorophenyl)sulfanyl-6-(3-thienyl)-6-[6-(2,2,2-trifluoro-1-methyl-ethoxy)-2-pyridyl]piperidine-2,4-dione] |
| 0.006 µM | O=C1CC(c2ccsc2)(c2cccc(Oc3ccc(F)c(C(F)F)c3)n2)NC(=O)C1Sc1ccccc1Cl (stereo not shown) [Example 152, 3-(2-chlorophenyl)sulfanyl-6-[6-[3-(difluoromethyl)-4-fluoro-phenoxy]-2-pyridyl]-6-(3-thienyl) piperidine-2,4-dione] |
| 0.006 µM | O=C1CC(c2ccsc2)(c2cccc(Oc3ccc(Cl)cc3)n2)NC(=O)C1Sc1ccccc1Cl (stereo not shown) [Example 167, 6-[6-(4-chlorophenoxy)-2-pyridyl]-3-(2-chlorophenyl) sulfanyl-6-(3-thienyl) piperidine-2,4-dione] |
| 0.004 µM | O=C1CC(c2ccsc2)(c2cccc(N3CC(C4CCOCC4)C3)n2)NC(=O)C1Sc1ccccc1Cl (stereo not shown) [Example 162, 3-(2-chlorophenyl)sulfanyl-6-[6-(3-tetrahydropyran-4-ylazetidin-1-yl)-2-pyridyl]-6-(3-thienyl) piperidine-2,4-dione] |
